Consider 1 compound from patent publication US5716528A, “Peroxide water treatment process” (Domtar Inc., priority 1995, dated 1998).

Each structure is given as a SMILES string. Some results are limits rather than exact numbers.

Test [1] in a line: Field trials: peroxide oxidation of wood preserving wastewater, then carbon adsorption. As for the experimental part: In field trials 900 liter samples of wood preserving wastewater of known Chemical Oxygen Demand (COD) was treated as follows:
This antifoam agent was added because foaming was expected in view of the large volume of waste water being treated.
An amount of Fe^2+ (as 0.1M or 1M ferrous sulphate heptahydrate) equivalent to 5-7% of the total H2 O2 by weight was added with fast agitation. The pH was kept at 3-3.8 at a temperature of 40°±5° C.
The reaction was judged complete when the colour of the reaction mixture turned light yellow similar to that of a ferric ions solution (3-3.5 hrs.)
The catalyst was separated by co-precipitation with alum or poly electrolytes.

Test [2] can be described thus: Effect of peroxide/penta weight ratios on the oxidation of pentachlorophenol. The settings on record: Fe2+/H2O2 3%, pH 3.5. The method, then:
a) Effect of peroxide/penta weight ratios on the oxidation of pentachlorophenol
Appropriate amounts of technical grade pentachlorophenol were dissolved in deionized water (the pH of which was kept at 8 to 9 with 5% NaOH solution) to yield solutions containing 19.0, 38.1, 66.6 and76.2 ppm pentachlorophenol.
100 ml of each of the above solutions was placed in each of four 100 ml beakers.
157.5 mg H2 O2 (≈0.42 ml of 35% solution) were added to each beaker to give peroxide/penta weight ratios of 82.7, 41.3, 27.6 and 20.7, respectively.
4.74 mg of Fe^2+ (≈0.85 ml of 0.1 molar solution of ferrous sulphate heptahydrate) were then added to give a constant Fe^2+ /H2 O2 weight ratio of 3% in each beaker.

For `Oc1c(Cl)c(Cl)c(Cl)c(Cl)c1Cl` [Pentachlorophenol, pentachlorophenol], the “removed after oxidation followed by carbon adsorption” value in test [1] (field trial) is listed as more than 99.3%. For the same compound, the “removed after oxidation only” value in test [1] (field trial) is recorded as 92.60-98.75%. In addition, the “destruction levels of contaminants by oxidation” value in test [1] (summary of process) is on record as approximately 99.9%. The PCP destruction in test [2] (PCP 19.0 ppm, H2O2/PCP ratio 82.7) stood at 96.2%; in test [2] (PCP 38.1 ppm, H2O2/PCP ratio 41.3), 98.2%; in test [2] (PCP 66.6 ppm, H2O2/PCP ratio 27.6), 98.9%; in test [2] (PCP 76.2 ppm, H2O2/PCP ratio 20.7), 95.9%.
